In patent US10821110B2, “Composite preparation, containing novel 3-(4--(benzyloxy)phenyl)hex-4-inoic acid derivative and another active ingredient, for preventing or treating metabolic diseases” (HYUNDAI PHARM CO., LTD., priority 2014, dated 2020):

Molecular target: T1, human GPR40 (Homo sapiens, UniProt O14842)
T1 construct: host or cells: HEK-293
Assay: Activation of GPR40 protein: intracellular calcium change (Fluo-4, Flexstation 3) in transfected HEK-293 cells
Format: cell-based
Settings: HEK-293 cells transfected with human GPR40; intracellular calcium; read-out: EC50
Procedure: The activation of GPR40 protein by a novel 3-(4-(benzyloxy)phenyl)hex-4-ynoic acid derivative of the present invention was evaluated through the change in intracellular calcium concentration due to the activity of GPR40 protein. First, HEK-293 cells were transfected with human GPR40 DNA (Origene, RC218370) by using Fugene HD (Promega, E2311). […] After 24 hours, the cell culture medium was removed, and replaced with Dulbecco's Modified Eagle Medium (DMEM, 50 μl) supplemented with 1% fetal bovine serum (FBS). For the measurement of calcium concentration, 50 μL of Fluo-4 reagent (Invitrogen, F10471) was added to each well and cultured in a 37° C. incubator for 2 hours. […] Two hours after the initiation of the culture, the prepared samples were automatically injected into the cells using Flexstation 3 (Molecular Devices), and then, the change in intracellular calcium concentration was measured using SoftMax®Pro software for 120 seconds. Here, for a non-treated group, dimethylsulfoxide (DMSO) was injected into the cells to measure the change in calcium concentration. The GPR40 protein activity was calculated from the measured calcium concentration result values using equation 1 below, and the GPR40 activity (EC50 value) by the samples was obtained. […] GPR 40 activity=(intracellular calcium concentration increased by the sample)/(intracellular calcium concentration of the non-treated group)×100 [Equation 1]

T1 sequence (O14842 whole entry): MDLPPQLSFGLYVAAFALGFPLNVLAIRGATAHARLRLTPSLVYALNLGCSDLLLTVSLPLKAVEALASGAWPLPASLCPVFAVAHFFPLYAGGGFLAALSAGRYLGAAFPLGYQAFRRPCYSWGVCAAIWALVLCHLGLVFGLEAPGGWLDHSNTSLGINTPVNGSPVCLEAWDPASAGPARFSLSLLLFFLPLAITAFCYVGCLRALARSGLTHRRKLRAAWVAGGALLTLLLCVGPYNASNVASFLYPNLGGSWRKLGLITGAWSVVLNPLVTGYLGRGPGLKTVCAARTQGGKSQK

| Molecule | EC50 [nM] |
| --- | --- |
| CC#C[C@@H](CC(=O)O)c1ccc(OCc2ccc(CN3CCC(c4ccccc4)CC3)cc2)cc1 [Example 26, (S)-3-(4-(4-((4-phenylpiperidin-1-yl)methyl)benzyloxy)phenyl)hex-4-ynoic acid] | > 300 |
| CC#C[C@H](CC(=O)O)c1ccc(OCc2cccc(C3=CCC4(CC3)OCCO4)c2)cc1 [Example 10, L-lysine (3R)-3-(4-(3-(1,4-dioxaspiro[4.5]dec-7-en-8-yl)benzyloxy)phenyl)hex-4-ynoate] | > 300 |
| CC#C[C@@H](CC(=O)O)c1ccc(OCc2ccc(CN3CC=C(c4ccc(OCCCS(C)(=O)=O)cc4)CC3)cc2)cc1 [Example 33, (S)-3-(4-(4-((4-(4-(3-(methylsulfonyl)propoxy)phenyl)-5,6-dihydropyridin-1(2H)-yl)methyl)benzyloxy)phenyl)hex-4-ynoic acid] | > 300 |
| CC#C[C@@H](CC(=O)O)c1ccc(OCc2ccc(CN3CC=C(c4ccc(S(C)(=O)=O)cc4)CC3)cc2)cc1 [Example 32, (S)-3-(4-(4-((4-(4-(methylsulfonyl)phenyl)-5,6-dihydropyridin-1(2H)-yl)methyl)benzyloxy)phenyl)hex-4-ynoic acid] | > 300 |
| CC#C[C@@H](CC(=O)O)c1ccc(OCc2cccc(C3=CCC4(CC3)OCCO4)c2)cc1 [Example 7, (3S)-3-(4-(3-(1,4-dioxaspiro[4.5]dec-7-en-8-yl)benzyloxy)phenyl)hex-4-ynoic Acid] | < 200 |
| CC#C[C@@H](CC(=O)O)c1ccc(OCc2ccc(CN3CCC(c4ccccc4)C3)cc2)cc1 (stereo partly drawn) [Example 46, (3S)-3-(4-(4-((3-phenylpyrrolidin-1-yl)methyl)benzyloxy)phenyl)hex-4-ynoic acid] | > 300 |
| CC#C[C@@H](CC(=O)O)c1ccc(OCc2ccc(CN3CCN(c4ccc(C(F)(F)F)cc4)CC3)cc2)cc1 [Example 22, (S)-3-(4-(4-((4-(4-(trifluoromethyl)phenyl)piperazin-1-yl)methyl)benzyloxy)phenyl)hex-4-ynoic acid] | > 300 |
| CC#C[C@@H](CC(=O)O)c1ccc(OCc2ccc(CN3CCN(c4ccc(O)cc4)CC3)cc2)cc1 [Example 35, (S)-3-(4-(4-((4-(4-hydroxyphenyl)piperazin-1-yl)methyl)benzyloxy)phenyl)hex-4-ynoic acid] | > 300 |
| CC#C[C@@H](CC(=O)O)c1ccc(OCc2ccc(CCN3Cc4ccccc4C3)cc2)cc1 [Example 49, (S)-3-(4-(4-(2-(isoindolin-2-yl)ethyl)benzyloxy)phenyl)hex-4-ynoic acid] | > 300 |
| potassium (S)-3-(4-(4-((4-(4-(trifluoromethyl)phenyl)piperazin-1-yl)methyl)benzyloxy)phenyl)hex-4-ynoate [Example 24] | 200 to 300 |
| CC#C[C@@H](CC(=O)O)c1ccc(OCc2ccc(CCN3CCc4ccccc4C3)cc2)cc1 [Example 50, (S)-3-(4-(4-(2-(3,4-dihydroisoquinolin-2(1H)-yl)ethyl)benzyloxy)phenyl)hex-4-ynoic acid] | > 300 |
| CC#C[C@@H](CC(=O)O)c1ccc(OCc2ccc(C(C)N3CCc4ccccc4C3)cc2)cc1 (stereo partly drawn) [Example 34, (3S)-3-(4-(4-(1-(3,4-dihydroisoquinolin-2(1H)-yl)ethyl)benzyloxy)phenyl)hex-4-ynoic acid] | > 300 |
| CC#CC(CC(=O)O)c1ccc(OCc2ccc(CN3CCN(c4ccccc4)CC3)cc2)cc1 (stereo not drawn) [Example 15, 3-(4-(4-((4-phenylpiperazin-1-yl)methyl)benzyloxy)phenyl)hex-4-ynoic acid] | > 300 |
| CC#C[C@@H](CC(=O)O)c1ccc(OCc2ccc(CN3CC=C(c4ccccc4)CC3)cc2)cc1 [Example 28, (S)-3-(4-(4-((4-phenyl-5,6-dihydropyridin-1(2H)-yl)methyl)benzyloxy)phenyl)hex-4-ynoic acid] | < 200 |
| CC#CC(CC(=O)O)c1ccc(OCc2cccc(C3=CCC4(CC3)OCCO4)c2)cc1 (stereo not drawn) [Example 1, 3-(4-(3-(1,4-dioxaspiro[4.5]dec-7-en-8-yl)benzyloxy)phenyl)hex-4-ynoic acid] | > 300 |
| CC#C[C@H](CC(=O)O)c1ccc(OCc2cccc(C3=CCC4(CC3)OCCO4)c2)cc1 [Example 8, (3R)-3-(4-(3-(1,4-dioxaspiro[4.5]dec-7-en-8-yl)benzyloxy)phenyl)hex-4-ynoic acid] | > 300 |
| CC#C[C@@H](CC(=O)O)c1ccc(OCc2ccc(CN3CCN(c4ccc(C#N)cn4)CC3)cc2)cc1 [Example 45, (S)-3-(4-(4-((4-(5-cyanopyridin-2-yl)piperazin-1-yl)methyl)benzyloxy)phenyl)hex-4-ynoic acid] | > 300 |
| CC#C[C@@H](CC(=O)O)c1ccc(OCc2ccc(CCN3CCc4cc(OC)ccc4C3)cc2)cc1 [Example 48, (S)-3-(4-(4-(2-(6-methoxy-3,4-dihydroisoquinolin-2(1H)-yl)ethyl)benzyloxy)phenyl)hex-4-ynoic acid] | > 300 |
| CC#CC(CC(=O)O)c1ccc(OCc2ccc(CN3CCN(c4ccc(OCCCS(C)(=O)=O)cc4)CC3)cc2)cc1 (stereo not drawn) [Example 20, 3-(4-(4-((4-(4-(3-(methylsulfonyl)propoxy)phenyl)piperazin-1-yl)methyl)benzyloxy)phenyl)hex-4-ynoic acid] | > 300 |
| CC#C[C@@H](CC(=O)O)c1ccc(OCc2ccc(CN3Cc4ccccc4C3)cc2)cc1 [Example 27, (S)-3-(4-(4-(isoindolin-2-ylmethyl)benzyloxy)phenyl)hex-4-ynoic acid] | < 200 |
| CC#CC(CC(=O)O)c1ccc(OCc2ccc(CN3CCc4ccccc4C3)c(C3=CCCCC3)c2)cc1 (stereo not drawn) [Example 13, 3-(4-(3-cyclohexenyl-4-((3,4-dihydroisoquinolin-2(1H)-yl)methyl)benzyloxy)phenyl)hex-4-ynoic acid] | > 300 |
| CC#CC(CC(=O)O)c1ccc(OCc2ccc(CN3CCN(c4ccc(C(F)(F)F)cc4)CC3)cc2)cc1 (stereo not drawn) [Example 19, 3-(4-(4-((4-(4-(trifluoromethyl)phenyl)piperazin-1-yl)methyl)benzyloxy)phenyl)hex-4-ynoic acid] | > 300 |
| CC#CC(CC(=O)O)c1ccc(OCc2ccc(CN3CCC(c4ccccc4)CC3)cc2)cc1 (stereo not drawn) [Example 17, 3-(4-(4-((4-phenylpiperidin-1-yl)methyl)benzyloxy)phenyl)hex-4-ynoic acid] | > 300 |
| CC#CC(CC(=O)O)c1ccc(OCc2ccc(CN3CCN(c4ccc(F)cc4)CC3)cc2)cc1 (stereo not drawn) [Example 18, 3-(4-(4-((4-(4-fluorophenyl)piperazin-1-yl)methyl)benzyloxy)phenyl)hex-4-ynoic acid] | > 300 |

Same assay, conditions: HEK-293 cells transfected with human GPR40; values in text; read-out: concentration activating the GPR40 protein by 50% (EC50)

| Molecule | EC50 [nM] |
| --- | --- |
| CC#C[C@@H](CC(=O)O)c1ccc(OCc2cccc(C3=CCC4(CC3)OCCO4)c2)cc1 [Example 7, (3S)-3-(4-(3-(1,4-dioxaspiro[4.5]dec-7-en-8-yl)benzyloxy)phenyl)hex-4-ynoic Acid] | ≤ 200 |
| CC#C[C@@H](CC(=O)O)c1ccc(OCc2ccc(CN3CC=C(c4ccccc4)CC3)cc2)cc1 [Example 28, (S)-3-(4-(4-((4-phenyl-5,6-dihydropyridin-1(2H)-yl)methyl)benzyloxy)phenyl)hex-4-ynoic acid] | ≤ 200 |
| CC#C[C@@H](CC(=O)O)c1ccc(OCc2ccc(CN3Cc4ccccc4C3)cc2)cc1 [Example 27, (S)-3-(4-(4-(isoindolin-2-ylmethyl)benzyloxy)phenyl)hex-4-ynoic acid] | ≤ 200 |
